Assay [1] concerns the target T1, ATF6 (Homo sapiens, UniProt P18850).
T1 construct: endogenous in cells; host or cells: U2-OS (ATCC HTB-96) stably transduced with the Cignal Lenti ATF6 luc reporter (Qiagen #CLS-6031L)
T1 sequence (P18850 1-670): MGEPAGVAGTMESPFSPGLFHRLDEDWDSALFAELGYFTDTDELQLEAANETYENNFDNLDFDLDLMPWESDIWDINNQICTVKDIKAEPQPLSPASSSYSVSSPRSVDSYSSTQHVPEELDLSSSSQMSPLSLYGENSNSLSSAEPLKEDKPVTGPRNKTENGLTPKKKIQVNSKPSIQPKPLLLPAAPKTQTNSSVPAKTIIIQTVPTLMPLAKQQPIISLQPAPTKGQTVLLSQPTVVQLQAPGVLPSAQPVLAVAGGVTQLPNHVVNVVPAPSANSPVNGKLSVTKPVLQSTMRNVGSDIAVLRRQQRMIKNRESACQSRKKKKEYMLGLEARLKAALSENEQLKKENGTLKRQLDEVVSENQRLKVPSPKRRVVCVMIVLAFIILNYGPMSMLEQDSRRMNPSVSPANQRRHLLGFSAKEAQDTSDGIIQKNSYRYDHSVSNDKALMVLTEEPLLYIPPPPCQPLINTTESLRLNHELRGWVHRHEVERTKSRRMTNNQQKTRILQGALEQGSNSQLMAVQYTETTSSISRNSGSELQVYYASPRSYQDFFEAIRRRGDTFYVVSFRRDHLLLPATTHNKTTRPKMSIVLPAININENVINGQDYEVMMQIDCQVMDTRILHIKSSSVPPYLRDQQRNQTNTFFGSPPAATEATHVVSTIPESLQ
Put plainly: ERSE ATF6-luciferase assay in presence of Tg-induced ER stress (U2-OS ATF6 TRE-luciferase reporter cells). In kind it is cell-based. Particulars: in presence of ER stress (thapsigargin), 8 hr, Tg only = 100%, Table 2-3. In outline: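 Stable U2-OS line with lentiviral firefly luciferase driven by an mCMV promoter plus tandem ATF6 TREs. Cells were pre-treated 30 min with 1 or 10 µM compound, then thapsigargin added as 0.2 µM solution with compound maintained, 0.3% DMSO final, for 8 h. Luminescence in triplicate; vehicle subtracted, Tg alone set as 100%.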
A general note: A reporter such as luciferase makes a cellular process visible.

Assay [2] addresses T1, ATF6. Put plainly: ERSE ATF6-luciferase assay in absence of ER stress (U2-OS ATF6 TRE-luciferase reporter cells). Particulars: in absence of ER stress (no Tg), 8 hr, normalized to maximal activation with Tg, Table 3-3. The format is cell-based. How it is done: To understand how exemplary compounds of the invention modulate the activity of ATF6 in absence or presence of endoplasmic reticulum (ER) stress, a Human bone osteosarcoma (U2-OS)-based TRE-luciferase reporter stable cell line was generated to determine the modulation of transcription of ATF6 target genes.
U2-OS cells were obtained from the American Type Culture Collection (ATCC HTB-96, ATCC Manassas, VA) and were cultured with growing medium containing Dulbecco's Modified Eagle's Medium (DMEM) (Cat. No.: SH30023.02, HyClone) supplemented with fetal bovine serum (FBS) 10% (Cat. No.: 16000044, Gibco) and 1% penicillin-streptomycin antibiotic cocktail (Cat. No.: SV30010, Hyclone).
Cignal Lenti ATF6 luc reporter (Qiagen #CLS-6031L) was used to produce a stable cell line in U2-OS cells (U2-OS ATF6 TRE-luciferase reporter). The lenti ATF6 reporter is a preparation of replication incompetent, VSV-g pseudotyped lentivirus particles expressing the firefly luciferase gene under the control of a minimal (m)CMV promoter and tandem repeats of the ATF6 transcriptional response element (TRE). The number of response elements as well as the intervening sequence between response elements has been experimentally optimized to maximize the signal to noise ratio.
Exemplary compounds of the invention and reference compounds were prepared from powder as 10 mM stock solutions in dimethyl sulfoxide (DMSO; Cat. No. #D2650, Sigma Aldrich) and stored at −80° C. in presence of N2 neutral atmosphere.
For the primary screening, 40,000 U2-OS ATF6 TRE-luciferase reporter cells were plated in poly-D-lysine (Cat. No.: P2636, Sigma) pre-coated white 96-well plates (Thermo Scientific Nunc #136101) with 100 μL of growing medium. Cells were incubated in humidified chambers for 24 hr.
For testing exemplary compounds in absence of ER-stress, cells were treated for 8 hr with 100 μL growing medium containing either vehicle (DMSO), 1 or 10 μM test compound or 0.1 μM Tg. The final concentration of DMSO in each well was kept at 0.3%. Plates were incubated in humidified chambers.
After 8 hr of incubation, plates were cooled down to room temperature for 10 min prior to luciferase assays. Luciferase reactions were performed as above. Luminescence was read by integration of 1 s with a gain of 110 in a Synergy 4 Microplate reader. All measurements were carried out in triplicate.
The average activity determined from the wells containing vehicle only (DMSO, 0% of ATF6 activity) was used as blank and subtracted from the rest of measurements. The percentage of modulation of exemplary compound was calculated by normalizing values to potential maximal activation with Tg.
ATF6 activities of exemplary compounds at 1 and 10 μM in absence of Tg-induced ER stress in the U2-OS ATF6 TRE-luciferase reporter cells were determined and are shown in Table 3-2, and Table 3-3.

As to `CC(C1CCCC1)n1cc(NC(=O)c2cc(-c3ccco3)on2)cn1` (single isomer, unassigned) [Compound 3-18, N-(1-(1-cyclopentylethyl)-1H-pyrazol-4-yl)-5-(furan-2-yl)isoxazole-3-carboxamide], the “ATF6 activity @ 1 μM [%]” value on ATF6 [1] (1 μM test compound) is listed as “+ (+ refers to 100% < % activity < 125% at 1 or 10 μM)”. At ATF6 [1] (10 μM test compound), the “ATF6 activity @ 10 μM [%]” value was “++ (++ refers to 125% < % activity < 150% at 1 or 10 μM test compound)”. The “ATF6 activity @ 1 μM-No Tg [%]” value at ATF6 [2] (1 μM test compound) was “+ (+ refers to 0% < % activity < 25% at 1 or 10 μM test compound)”. On ATF6 [2] (10 μM test compound), the “ATF6 activity @ 10 μM - No Tg [%]” value is listed as “+ (+ refers to 0% < % activity < 25% at 1 or 10 μM test compound)”.

Values taken from patent publication US12662478B2, “ATF6 modulators and uses thereof” (Altos Labs, Inc., priority 2019, dated 2026).
